Results published in PMC8459971, “Evaluation of the hepatotoxicity of the novel GPR40 (FFAR1) agonist CPL207280 in the rat and monkey” (PLoS ONE, 2021).
“And” between values parts separate entries of the source, which are not always exact repeats. Equal values may be shown once.

Tests used:
[1] = Stability in microsomes, rat; assay type: in vitro ADME; details: for average DEG [%]: rat microsomes, with cofactors
Protocol: (§1) The final incubation volume was 500 μL. Two control compounds (verapamil and donepezil) were included for each microsomal species, along with the appropriate vehicle control. The reactions were terminated by transferring 50 μL of incubate to 100 μL methanol containing an internal standard (metoprolol) at appropriate time points (0, 10, 20, 40, 60, and 120 min for the test compound and 0, 5, 10, 20, 40, and 60 min for the control compounds). The termination plates were centrifuged at 4000 x g at 4°C for 30 min to precipitate the protein. The supernatants were then collected for analysis, and LC-MS/MS was used for detection purposes. The system consisted of an Acquity™ Binary Solvent Manager, Acquity™ 4-position heated column manager, 2777 Ultra High Pressure Autosampler, and a Xevo-TQ MS triple quadrupole mass spectrometer (Waters Ltd., Herts, UK). This process was carried out twice.

[2] = target: OATP1A2 (Homo sapiens, UniProt P46721); test: Uptake transporter inhibition assay, OATP1A2; details: for Accumulation (counts per minute; CPM) HEK293FT-MOCK / Accumulation (counts per minute; CPM) HEK293FT-OATP1A2: OATP1A2;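 further: cellular uptake of a radiolabeled probe substrate in HBSS pH 7.4 at 37 °C with test compound or solvent, measured by liquid scintillation counting of cell lysates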
Sequence of OATP1A2 (P46721 whole entry): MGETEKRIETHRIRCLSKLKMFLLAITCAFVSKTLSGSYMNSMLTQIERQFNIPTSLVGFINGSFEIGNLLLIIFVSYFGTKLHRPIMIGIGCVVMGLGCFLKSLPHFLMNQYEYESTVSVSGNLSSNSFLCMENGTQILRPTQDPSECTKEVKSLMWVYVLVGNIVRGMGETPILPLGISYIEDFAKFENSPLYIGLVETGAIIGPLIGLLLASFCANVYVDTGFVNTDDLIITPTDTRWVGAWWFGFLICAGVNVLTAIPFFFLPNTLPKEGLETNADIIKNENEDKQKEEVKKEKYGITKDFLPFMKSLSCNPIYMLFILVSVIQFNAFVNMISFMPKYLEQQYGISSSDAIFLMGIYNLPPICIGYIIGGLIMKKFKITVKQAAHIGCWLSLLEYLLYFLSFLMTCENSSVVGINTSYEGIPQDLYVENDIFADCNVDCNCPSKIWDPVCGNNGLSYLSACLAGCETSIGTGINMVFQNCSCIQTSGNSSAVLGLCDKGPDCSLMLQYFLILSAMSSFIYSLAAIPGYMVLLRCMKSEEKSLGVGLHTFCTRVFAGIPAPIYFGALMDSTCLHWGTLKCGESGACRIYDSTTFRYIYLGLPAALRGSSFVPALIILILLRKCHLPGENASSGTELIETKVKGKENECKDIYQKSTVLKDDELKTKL
Protocol: (§2) For the uptake transporter inhibition assay, cells were washed twice with 100 μL of the appropriate buffer (HK, pH 7.4) for OATP1B1, followed by HBSS (pH 7.4) for (NTCP, OAT1, OAT2v1, OATP1A2, and OATP1B3). Uptake experiments were carried out at 37 ± 1°C in 50 μL of the respective buffer containing the probe substrate and the compound or solvent. […] After the experiment, cells were washed twice with 100 μL of cold appropriate buffer and lysed with 50 μL of 0.1 M NaOH. Radiolabeled probe substrate transport was determined by measuring an aliquot (35 μL) from each well for liquid scintillation counting.

[3] = Stability in microsomes, mini pig; assay type: in vitro ADME; details: for average DEG [%]: minipig microsomes, with cofactors
Protocol: as §1

[4] = target: T1, OAT1 (Homo sapiens, UniProt Q4U2R8); test: Uptake transporter inhibition assay, OAT1; details: for Accumulation (counts per minute; CPM) HEK293FT-MOCK / Accumulation (counts per minute; CPM) HEK293FT-OAT1: OAT1;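 further: HEK293FT cells expressing OAT1 or mock, uptake of radiolabeled probe substrate at 37 °C in HBSS pH 7.4 with test compound or solvent, cell lysate read by liquid scintillation counting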
T1 sequence (Q4U2R8 1-563): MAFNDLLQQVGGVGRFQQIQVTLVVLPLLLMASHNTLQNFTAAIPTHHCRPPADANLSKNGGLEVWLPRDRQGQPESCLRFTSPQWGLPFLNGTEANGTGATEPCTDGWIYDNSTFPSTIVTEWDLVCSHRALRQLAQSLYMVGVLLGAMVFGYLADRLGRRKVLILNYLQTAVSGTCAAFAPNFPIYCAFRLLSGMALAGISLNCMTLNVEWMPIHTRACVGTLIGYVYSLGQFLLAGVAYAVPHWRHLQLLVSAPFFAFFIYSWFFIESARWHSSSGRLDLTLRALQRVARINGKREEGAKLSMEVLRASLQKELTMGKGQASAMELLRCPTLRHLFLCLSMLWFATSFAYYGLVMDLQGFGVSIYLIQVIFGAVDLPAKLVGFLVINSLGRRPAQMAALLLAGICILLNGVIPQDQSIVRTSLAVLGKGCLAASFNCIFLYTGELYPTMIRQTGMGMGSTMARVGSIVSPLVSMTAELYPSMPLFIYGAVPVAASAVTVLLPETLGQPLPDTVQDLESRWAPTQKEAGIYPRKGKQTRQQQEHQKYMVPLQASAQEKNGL
Protocol: as §2

[5] = Stability in microsomes, monkey; assay type: in vitro ADME; details: for average DEG [%]: monkey microsomes, with cofactors
Protocol: as §1

[6] = Pharmacokinetics in mice, serum and liver concentrations; details: for liver conc / serum conc: mouse, 3 mg/kg p.o., individual animals
Protocol: The mice were separated into four groups of 32 mice per group. […] At time point t = 0, animals received a single dose of the compounds orally. […] Four hours after drug administration, the animals received standard chow. […] After solubilization in extraction buffer, the solutions were shaken for 1 min and then centrifuged for 4 min (4000 x g).

[7] = target: MRP3 (Homo sapiens, UniProt O15438); test: Vesicular transport inhibition assay, MRP3; details: for Accumulation (counts per minute; CPM) with AMP / Accumulation (counts per minute; CPM) with ATP: MRP3;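 further: membrane vesicles with radiolabelled probe substrate and 2 mM glutathione, 4 mM ATP versus AMP background control, vesicle-trapped substrate quantified by liquid scintillation counting after filtration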;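 on Accumulation (counts per minute; CPM) with AMP: ATP 4 mM vs AMP background separates transporter uptake from diffusion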;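 on Accumulation (counts per minute; CPM) with ATP: ATP 4 mM vs AMP background separates transporter uptake from diffusion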
Sequence of MRP3 (O15438 whole entry, the tested form may be a part): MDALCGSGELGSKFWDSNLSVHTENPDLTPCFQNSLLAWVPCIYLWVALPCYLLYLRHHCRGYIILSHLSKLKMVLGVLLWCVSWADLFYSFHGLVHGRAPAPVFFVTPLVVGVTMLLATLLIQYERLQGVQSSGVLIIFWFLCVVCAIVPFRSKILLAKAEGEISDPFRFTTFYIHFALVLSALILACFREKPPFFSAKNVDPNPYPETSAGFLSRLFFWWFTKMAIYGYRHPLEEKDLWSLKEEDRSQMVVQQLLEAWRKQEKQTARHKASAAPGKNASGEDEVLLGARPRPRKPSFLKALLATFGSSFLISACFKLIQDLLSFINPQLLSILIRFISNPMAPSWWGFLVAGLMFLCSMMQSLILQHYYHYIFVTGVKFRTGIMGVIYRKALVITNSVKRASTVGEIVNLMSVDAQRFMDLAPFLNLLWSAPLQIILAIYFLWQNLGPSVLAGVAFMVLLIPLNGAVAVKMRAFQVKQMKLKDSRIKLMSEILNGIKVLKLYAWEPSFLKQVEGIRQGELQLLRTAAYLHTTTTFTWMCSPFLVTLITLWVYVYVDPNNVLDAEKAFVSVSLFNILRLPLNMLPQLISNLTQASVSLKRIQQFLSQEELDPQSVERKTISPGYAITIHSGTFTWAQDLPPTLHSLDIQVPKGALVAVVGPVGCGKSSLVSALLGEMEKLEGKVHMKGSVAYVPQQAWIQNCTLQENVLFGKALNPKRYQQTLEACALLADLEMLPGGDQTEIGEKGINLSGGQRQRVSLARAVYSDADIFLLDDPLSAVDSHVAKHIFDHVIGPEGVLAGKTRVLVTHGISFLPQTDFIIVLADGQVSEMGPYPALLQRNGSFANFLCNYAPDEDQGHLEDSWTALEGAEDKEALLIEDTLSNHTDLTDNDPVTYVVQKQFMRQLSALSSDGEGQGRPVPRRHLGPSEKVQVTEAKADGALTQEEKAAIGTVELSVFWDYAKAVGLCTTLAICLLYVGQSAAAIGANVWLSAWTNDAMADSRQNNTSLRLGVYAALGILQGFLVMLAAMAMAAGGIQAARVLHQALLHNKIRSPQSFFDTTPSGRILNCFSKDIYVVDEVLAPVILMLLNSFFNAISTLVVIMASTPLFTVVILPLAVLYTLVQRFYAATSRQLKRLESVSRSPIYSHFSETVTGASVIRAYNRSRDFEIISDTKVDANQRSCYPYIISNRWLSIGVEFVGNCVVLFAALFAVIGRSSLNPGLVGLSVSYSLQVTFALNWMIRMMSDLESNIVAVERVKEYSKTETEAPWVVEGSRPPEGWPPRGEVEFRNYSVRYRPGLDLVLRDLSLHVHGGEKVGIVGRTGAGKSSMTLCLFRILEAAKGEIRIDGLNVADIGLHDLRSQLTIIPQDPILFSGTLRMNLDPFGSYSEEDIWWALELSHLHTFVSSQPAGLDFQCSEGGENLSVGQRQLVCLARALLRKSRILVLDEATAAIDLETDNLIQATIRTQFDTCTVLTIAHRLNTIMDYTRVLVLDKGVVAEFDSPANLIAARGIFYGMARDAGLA
Protocol: (§3) In the vesicular transport inhibition assay (for BSEP, MRP) compounds were incubated with membrane vesicle preparations and the probe substrate. Incubations were carried out in the presence of 4 mM ATP or AMP to distinguish between transporter-mediated uptake and passive diffusion into the vesicles. For MRP2 and MRP3, reactions were carried out in the presence of 2 mM glutathione. Compounds were added to the reaction mixture in 0.75 μL of solvent (1% of the final incubation volume). […] Reactions were initiated by the addition of 25 μL of 12 mM MgATP (or 12 mM AMP in assay buffer as a background control) and preincubated separately. Reactions were quenched by the addition of 200 μL of ice-cold washing buffer and immediate filtration via glass fiber filters mounted on a 96-well plate (filter plate). The filters were washed (5 × 200 μL of ice-cold washing buffer), dried, and the amount of substrate inside the filtered vesicles was determined by liquid scintillation counting.

[8] = target: BSEP (Homo sapiens, UniProt O95342); test: Vesicular transport inhibition assay, BSEP
Sequence of BSEP (O95342 whole entry): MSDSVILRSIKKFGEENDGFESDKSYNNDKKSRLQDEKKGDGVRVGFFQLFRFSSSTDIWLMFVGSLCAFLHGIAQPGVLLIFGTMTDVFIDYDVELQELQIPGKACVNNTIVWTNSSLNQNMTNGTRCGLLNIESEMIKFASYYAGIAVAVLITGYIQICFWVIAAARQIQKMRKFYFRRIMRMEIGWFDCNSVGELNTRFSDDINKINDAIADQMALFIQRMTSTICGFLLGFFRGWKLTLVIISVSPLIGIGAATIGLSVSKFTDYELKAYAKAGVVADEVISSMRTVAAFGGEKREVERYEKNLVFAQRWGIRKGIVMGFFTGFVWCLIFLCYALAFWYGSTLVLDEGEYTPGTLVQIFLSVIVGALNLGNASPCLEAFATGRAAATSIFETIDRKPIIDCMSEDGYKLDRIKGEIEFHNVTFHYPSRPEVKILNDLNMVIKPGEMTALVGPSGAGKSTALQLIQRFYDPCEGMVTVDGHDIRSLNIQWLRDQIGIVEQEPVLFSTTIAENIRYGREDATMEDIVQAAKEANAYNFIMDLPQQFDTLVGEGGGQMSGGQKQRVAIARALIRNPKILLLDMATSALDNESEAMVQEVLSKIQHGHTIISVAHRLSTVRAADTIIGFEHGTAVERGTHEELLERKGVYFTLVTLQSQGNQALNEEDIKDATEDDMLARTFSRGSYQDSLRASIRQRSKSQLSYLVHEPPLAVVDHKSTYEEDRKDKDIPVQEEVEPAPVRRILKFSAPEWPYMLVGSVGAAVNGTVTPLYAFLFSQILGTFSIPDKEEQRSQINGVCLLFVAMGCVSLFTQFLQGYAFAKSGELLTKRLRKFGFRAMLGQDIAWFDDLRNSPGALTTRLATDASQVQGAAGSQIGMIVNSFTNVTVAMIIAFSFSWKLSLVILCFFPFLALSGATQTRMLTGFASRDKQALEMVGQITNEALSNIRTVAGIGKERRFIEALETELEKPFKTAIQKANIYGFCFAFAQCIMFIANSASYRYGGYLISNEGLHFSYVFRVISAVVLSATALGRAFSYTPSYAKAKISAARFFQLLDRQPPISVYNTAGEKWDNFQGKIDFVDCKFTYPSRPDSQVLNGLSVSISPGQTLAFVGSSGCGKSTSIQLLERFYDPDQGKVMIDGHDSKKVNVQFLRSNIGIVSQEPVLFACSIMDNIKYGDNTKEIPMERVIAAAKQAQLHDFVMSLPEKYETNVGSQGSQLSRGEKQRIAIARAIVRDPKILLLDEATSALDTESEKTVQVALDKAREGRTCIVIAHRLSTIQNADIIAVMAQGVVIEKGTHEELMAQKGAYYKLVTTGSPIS
Protocol: as §3

[9] = Rat (Sprague Dawley) microsomes, mean n = 2
[10] = Mini pig microsomes, mean n = 2
[11] = Monkey (Cynomolgus) microsomes, mean n = 2

## Cc1cc(OCCCS(C)(=O)=O)cc(C)c1-c1cccc(COc2ccc3c(c2)OC[C@H]3CC(=O)O)c1 [TAK-875, fasiglifam, reference compound]
[1]; [9]
  half-life at 3 μM: 119 min
  microsomal CLint at 3 μM: 11.6 µL/min/mg
[1]; 0 min
  average DEG [%]: 100.0%
[1]; 20 min
  average DEG [%]: 81.3%
[1]; 40 min
  average DEG [%]: 79.5%
[1]; 60 min
  average DEG [%]: 68.4%
[2]
  IC50: 10.6 µM
[2]; conc 0.10 µM
  Accumulation (counts per minute; CPM) HEK293FT-MOCK: 142 CPM and 152 CPM
  Accumulation (counts per minute; CPM) HEK293FT-OATP1A2: 10423 CPM and 10027 CPM
[2]; conc 0.30 µM
  Accumulation (counts per minute; CPM) HEK293FT-MOCK: 182 CPM and 209 CPM
  Accumulation (counts per minute; CPM) HEK293FT-OATP1A2: 8846 CPM and 9642 CPM
[2]; conc 1.00 µM
  Accumulation (counts per minute; CPM) HEK293FT-MOCK: 191 CPM and 201 CPM
  Accumulation (counts per minute; CPM) HEK293FT-OATP1A2: 7776 CPM and 7509 CPM
[2]; conc 3.00 µM
  Accumulation (counts per minute; CPM) HEK293FT-MOCK: 170 CPM and 194 CPM
  Accumulation (counts per minute; CPM) HEK293FT-OATP1A2: 6621 CPM and 5348 CPM
[2]; conc 10.00 µM
  Accumulation (counts per minute; CPM) HEK293FT-MOCK: 165 CPM and 156 CPM
  Accumulation (counts per minute; CPM) HEK293FT-OATP1A2: 5408 CPM and 5698 CPM
[2]; conc 30.00 µM
  Accumulation (counts per minute; CPM) HEK293FT-MOCK: 149 CPM and 181 CPM
  Accumulation (counts per minute; CPM) HEK293FT-OATP1A2: 4731 CPM and 4729 CPM
[2]; conc 100.00 µM
  Accumulation (counts per minute; CPM) HEK293FT-MOCK: 205 CPM and 204 CPM
  Accumulation (counts per minute; CPM) HEK293FT-OATP1A2: 2008 CPM and 2199 CPM
[3]; [10]
  half-life at 3 μM: 15 min
  microsomal CLint at 3 μM: 91.1 µL/min/mg
[3]; 0 min
  average DEG [%]: 100.0%
[3]; 20 min
  average DEG [%]: 29.4%
[3]; 40 min
  average DEG [%]: 13.1%
[3]; 60 min
  average DEG [%]: 5.83%
[4]
  IC50: 34.8 µM
[4]; conc 0.10 µM
  Accumulation (counts per minute; CPM) HEK293FT-MOCK: 34 CPM and 47 CPM
  Accumulation (counts per minute; CPM) HEK293FT-OAT1: 3883 CPM and 3843 CPM
[4]; conc 0.30 µM
  Accumulation (counts per minute; CPM) HEK293FT-MOCK: 36 CPM and 29 CPM
  Accumulation (counts per minute; CPM) HEK293FT-OAT1: 3654 CPM and 3608 CPM
[4]; conc 1.00 µM
  Accumulation (counts per minute; CPM) HEK293FT-MOCK: 32 CPM and 37 CPM
  Accumulation (counts per minute; CPM) HEK293FT-OAT1: 3568 CPM and 3527 CPM
[4]; conc 3.00 µM
  Accumulation (counts per minute; CPM) HEK293FT-MOCK: 36 CPM and 37 CPM
  Accumulation (counts per minute; CPM) HEK293FT-OAT1: 3226 CPM and 3417 CPM
[4]; conc 10.00 µM
  Accumulation (counts per minute; CPM) HEK293FT-MOCK: 34 CPM and 39 CPM
  Accumulation (counts per minute; CPM) HEK293FT-OAT1: 3074 CPM and 3122 CPM
[4]; conc 30.00 µM
  Accumulation (counts per minute; CPM) HEK293FT-MOCK: 36 CPM and 39 CPM
  Accumulation (counts per minute; CPM) HEK293FT-OAT1: 1739 CPM and 1807 CPM
[4]; conc 100.00 µM
  Accumulation (counts per minute; CPM) HEK293FT-MOCK: 33 CPM and 31 CPM
  Accumulation (counts per minute; CPM) HEK293FT-OAT1: 496 CPM and 493 CPM
[5]; [11]
  half-life at 3 μM: 30 min
  microsomal CLint at 3 μM: 39.2 µL/min/mg
[5]; 0 min
  average DEG [%]: 100.0%
[5]; 20 min
  average DEG [%]: 61.2%
[5]; 40 min
  average DEG [%]: 37.2%
[5]; 60 min
  average DEG [%]: 32.0%
[6]; mice, single oral dose 3 mg/kg, 15 min to 24 h
  distribution between liver and serum: tended to penetrate the liver more than serum
[6]; 0.5 h, 3 mg/kg
  liver conc: 12066 and 9386 and 11708 and 12618
  serum conc: 993.3 and 360.8 and 908.6 and 651.9
[6]; 1 h, 3 mg/kg
  liver conc: 10596 and 9326 and 7020 and 7420
  serum conc: 1072.6 and 672.7 and 566 and 819
[6]; 2 h, 3 mg/kg
  liver conc: 6580 and 5322 and 5300 and 4227.4
[6]; 4 h, 3 mg/kg
  liver conc: 3742.6 and 2509.2 and 2176.6 and 3530.4
[6]; 7 h, 3 mg/kg
  liver conc: 1827.82 and 413.84 and 1236.2 and 1172.8
  serum conc: 0 and 11.2 and 32.3 and 10
[6]; 12 h, 3 mg/kg
  liver conc: 594.8 and 321.278 and 55.624 and 442.92
  serum conc: 12 and 0 (2×) and 18.6
[6]; 24 h
  serum conc: 0
[6]; 24 h, 3 mg/kg
  liver conc: 449.28 and 67.18 and 37.77 and 209.86
[7]
  IC50: 31.8 µM
[7]; conc 0.07 µM
  Accumulation (counts per minute; CPM) with AMP: 151 CPM and 146 CPM
  Accumulation (counts per minute; CPM) with ATP: 3266 CPM and 3317 CPM
[7]; conc 0.21 µM
  Accumulation (counts per minute; CPM) with AMP: 149 CPM and 132 CPM
  Accumulation (counts per minute; CPM) with ATP: 3233 CPM and 3776 CPM
[7]; conc 0.62 µM
  Accumulation (counts per minute; CPM) with AMP: 197 CPM and 169 CPM
  Accumulation (counts per minute; CPM) with ATP: 3398 CPM and 3538 CPM
[7]; conc 16.67 µM
  Accumulation (counts per minute; CPM) with AMP: 238 CPM and 245 CPM
  Accumulation (counts per minute; CPM) with ATP: 2701 CPM and 2568 CPM
[7]; conc 50.00 µM
  Accumulation (counts per minute; CPM) with AMP: 232 CPM and 210 CPM
  Accumulation (counts per minute; CPM) with ATP: 1204 CPM and 1302 CPM
[8]; conc 0.41 µM
  Accumulation (counts per minute; CPM) HEK293-BSEP: 11727 CPM and 12245 CPM and 11981 CPM
  Accumulation (counts per minute; CPM) HEK293-MOCK: 463 CPM and 375 CPM and 363 CPM
[8]; conc 1.23 µM
  Accumulation (counts per minute; CPM) HEK293-BSEP: 11757 CPM and 12666 CPM and 12491 CPM
  Accumulation (counts per minute; CPM) HEK293-MOCK: 465 CPM and 378 CPM and 379 CPM
[8]; conc 3.70 µM
  Accumulation (counts per minute; CPM) HEK293-BSEP: 11540 CPM and 12190 CPM and 12485 CPM
  Accumulation (counts per minute; CPM) HEK293-MOCK: 406 CPM and 443 CPM and 391 CPM
[8]; conc 11.11 µM
  Accumulation (counts per minute; CPM) HEK293-BSEP: 11930 CPM and 12790 CPM and 12439 CPM
  Accumulation (counts per minute; CPM) HEK293-MOCK: 450 CPM and 398 CPM and 437 CPM
[8]; conc 33.33 µM
  Accumulation (counts per minute; CPM) HEK293-BSEP: 10294 CPM and 11069 CPM and 10674 CPM
  Accumulation (counts per minute; CPM) HEK293-MOCK: 418 CPM and 356 CPM and 425 CPM
[8]; conc 100 µM
  Accumulation (counts per minute; CPM) HEK293-BSEP: 6186 CPM and 6483 CPM and 6458 CPM
  Accumulation (counts per minute; CPM) HEK293-MOCK: 375 CPM and 361 CPM and 372 CPM
